Drawing on ChEMBL document CHEMBL1129213, “Synthesis and structure-activity relationships of potent conformationally restricted retinoid X receptor ligands” (Bioorg Med Chem Lett, 1997), this text covers EC50 and Ki for five compounds.

Assay [1] has as its target T1, Retinoic acid receptor beta (Homo sapiens, UniProt P10826).
T1 sequence (P10826 whole entry): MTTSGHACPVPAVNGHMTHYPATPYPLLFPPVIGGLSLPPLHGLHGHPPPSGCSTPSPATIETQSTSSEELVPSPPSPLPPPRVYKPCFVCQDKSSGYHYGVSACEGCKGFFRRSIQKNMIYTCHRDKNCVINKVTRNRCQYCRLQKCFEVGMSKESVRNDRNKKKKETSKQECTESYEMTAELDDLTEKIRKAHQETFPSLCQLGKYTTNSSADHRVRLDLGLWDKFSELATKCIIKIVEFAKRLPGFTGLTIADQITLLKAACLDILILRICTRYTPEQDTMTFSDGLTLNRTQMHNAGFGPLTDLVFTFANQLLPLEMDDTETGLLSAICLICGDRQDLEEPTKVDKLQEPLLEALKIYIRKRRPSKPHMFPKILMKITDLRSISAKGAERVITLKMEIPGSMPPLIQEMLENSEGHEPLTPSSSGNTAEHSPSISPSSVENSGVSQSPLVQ
To be noted: cv-1.

Assay [2] has as its target T2, Retinoic acid receptor RXR-beta (Homo sapiens, UniProt P28702).
T2 sequence (P28702 whole entry): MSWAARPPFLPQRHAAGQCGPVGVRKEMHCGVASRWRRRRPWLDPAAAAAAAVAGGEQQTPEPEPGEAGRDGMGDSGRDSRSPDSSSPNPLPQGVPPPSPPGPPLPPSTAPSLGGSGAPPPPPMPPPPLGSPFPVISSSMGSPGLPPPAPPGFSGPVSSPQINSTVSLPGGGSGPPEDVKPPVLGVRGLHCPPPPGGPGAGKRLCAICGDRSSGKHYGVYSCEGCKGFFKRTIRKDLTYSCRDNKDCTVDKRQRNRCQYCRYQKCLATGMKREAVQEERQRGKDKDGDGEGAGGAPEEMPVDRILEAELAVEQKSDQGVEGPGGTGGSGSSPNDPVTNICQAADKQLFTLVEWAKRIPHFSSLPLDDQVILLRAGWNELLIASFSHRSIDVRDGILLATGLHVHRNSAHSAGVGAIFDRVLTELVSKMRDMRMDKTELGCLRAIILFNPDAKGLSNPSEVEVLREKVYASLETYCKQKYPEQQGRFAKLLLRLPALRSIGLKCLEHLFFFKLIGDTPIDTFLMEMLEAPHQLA
Put plainly: Inhibition of [3H]9-cis-RA binding to RXR beta receptor.

Assay [3] concerns the target T3, Retinoic acid receptor alpha (Homo sapiens, UniProt P10276).
T3 sequence (P10276 whole entry): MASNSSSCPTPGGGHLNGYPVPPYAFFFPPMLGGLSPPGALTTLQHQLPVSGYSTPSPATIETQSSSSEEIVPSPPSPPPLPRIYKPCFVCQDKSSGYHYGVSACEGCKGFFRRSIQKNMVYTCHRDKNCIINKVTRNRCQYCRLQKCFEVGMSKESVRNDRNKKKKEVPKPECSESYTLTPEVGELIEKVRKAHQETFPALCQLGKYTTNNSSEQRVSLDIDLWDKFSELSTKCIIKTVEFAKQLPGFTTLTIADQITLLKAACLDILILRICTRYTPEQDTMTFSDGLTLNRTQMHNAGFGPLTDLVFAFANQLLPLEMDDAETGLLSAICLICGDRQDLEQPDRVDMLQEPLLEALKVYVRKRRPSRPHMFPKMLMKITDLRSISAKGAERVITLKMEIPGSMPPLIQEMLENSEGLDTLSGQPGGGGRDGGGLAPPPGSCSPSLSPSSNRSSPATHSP
In words: Transcriptional activation in CV-1 cells expressing retinoic acid receptor RAR alpha; inactive. It is filed as functional, cell-based.

For assay [4], the target named is T1, Retinoic acid receptor beta. In words: Inhibition of [3H]ATRA binding to RAR beta receptor.
Assay [5] has as its target T4, Retinoic acid receptor RXR-gamma (Homo sapiens, UniProt P48443).
T4 sequence (P48443 whole entry): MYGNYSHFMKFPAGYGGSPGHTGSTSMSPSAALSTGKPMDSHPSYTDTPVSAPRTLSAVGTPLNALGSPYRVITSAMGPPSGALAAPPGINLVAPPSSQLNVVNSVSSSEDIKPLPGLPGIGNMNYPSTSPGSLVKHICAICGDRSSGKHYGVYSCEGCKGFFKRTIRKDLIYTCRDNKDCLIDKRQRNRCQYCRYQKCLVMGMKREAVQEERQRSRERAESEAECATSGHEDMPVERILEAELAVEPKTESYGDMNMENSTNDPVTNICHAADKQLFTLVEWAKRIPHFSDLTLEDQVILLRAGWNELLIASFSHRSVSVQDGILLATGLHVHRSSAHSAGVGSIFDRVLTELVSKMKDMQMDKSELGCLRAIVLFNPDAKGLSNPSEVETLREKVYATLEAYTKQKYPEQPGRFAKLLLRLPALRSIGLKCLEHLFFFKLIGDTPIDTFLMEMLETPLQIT
In words: Inhibition of [3H]9-cis-RA binding to RXR gamma receptor.

The target of assay [6] is T5, Retinoic acid receptor gamma (Homo sapiens, UniProt P13631).
T5 sequence (P13631 whole entry): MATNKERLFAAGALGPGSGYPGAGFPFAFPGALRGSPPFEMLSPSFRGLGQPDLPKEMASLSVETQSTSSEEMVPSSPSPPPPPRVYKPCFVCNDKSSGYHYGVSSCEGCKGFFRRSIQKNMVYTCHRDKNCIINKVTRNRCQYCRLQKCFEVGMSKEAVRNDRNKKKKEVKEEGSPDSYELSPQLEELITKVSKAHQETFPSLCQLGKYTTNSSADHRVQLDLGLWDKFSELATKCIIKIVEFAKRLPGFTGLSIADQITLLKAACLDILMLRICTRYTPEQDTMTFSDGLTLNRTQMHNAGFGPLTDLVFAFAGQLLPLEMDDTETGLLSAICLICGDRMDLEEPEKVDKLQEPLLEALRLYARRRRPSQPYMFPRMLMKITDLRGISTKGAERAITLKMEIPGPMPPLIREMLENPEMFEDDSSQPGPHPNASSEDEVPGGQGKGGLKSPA
In words: Inhibition of [3H]ATRA binding to RAR gamma receptor.

In assay [7] the target is T4, Retinoic acid receptor RXR-gamma. In words: Transcriptional activation in CV-1 cells expressing retinoid X receptor RXR gamma. It is filed as functional, cell-based.
The target of assay [8] is T3, Retinoic acid receptor alpha. In words: Inhibition of [3H]ATRA binding to RAR alpha receptor.
In assay [9] the target is T6, Retinoic acid receptor RXR-alpha (Homo sapiens, UniProt P19793).
T6 sequence (P19793 whole entry): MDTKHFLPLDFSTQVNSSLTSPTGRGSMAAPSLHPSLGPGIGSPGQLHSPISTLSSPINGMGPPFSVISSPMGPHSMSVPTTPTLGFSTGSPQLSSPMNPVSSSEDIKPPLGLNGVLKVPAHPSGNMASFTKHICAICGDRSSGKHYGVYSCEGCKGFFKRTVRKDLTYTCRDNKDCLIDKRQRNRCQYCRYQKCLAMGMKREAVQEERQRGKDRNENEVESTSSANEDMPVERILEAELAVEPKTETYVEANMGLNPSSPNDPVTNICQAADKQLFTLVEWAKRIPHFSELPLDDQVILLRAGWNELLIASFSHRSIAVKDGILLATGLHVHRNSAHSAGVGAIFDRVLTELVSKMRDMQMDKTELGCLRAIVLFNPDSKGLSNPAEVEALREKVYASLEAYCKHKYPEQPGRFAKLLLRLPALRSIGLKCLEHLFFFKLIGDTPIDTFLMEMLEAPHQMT
In words: Inhibition of [3H]9-cis-RA binding to RXR alpha receptor.

Assay [10] deals with T2, Retinoic acid receptor RXR-beta. Put plainly: Transcriptional activation in CV-1 cells expressing retinoid X receptor RXR beta. The format is functional, cell-based.
Assay [11] has as its target T3, Retinoic acid receptor alpha. Put plainly: Transcriptional activation in CV-1 cells expressing retinoic acid receptor RAR alpha; not active. The format is functional, cell-based.
Assay [12] addresses T6, Retinoic acid receptor RXR-alpha. Put plainly: Transcriptional activation in CV-1 cells expressing retinoid X receptor RXR alpha. It is filed as functional, cell-based.
For assay [13], the target named is T1, Retinoic acid receptor beta. Put plainly: Transcriptional activation in CV-1 cells expressing retinoic acid receptor RAR beta. The format is functional, cell-based.
The target of assay [14] is T5, Retinoic acid receptor gamma. Put plainly: Transcriptional activation in CV-1 cells expressing retinoic acid receptor RAR gamma. The format is functional, cell-based.
Assay [15] shares this target. To be noted: cv-1.

With `CC(/C=C/C1(c2cc3c(cc2C)C(C)(C)CCC3(C)C)CC1)=C\C(=O)O`, the 50% effective concentration (EC50) (commonly the concentration needed to bring the measured effect to its halfway point) in assay [1] is “Not Active”; in assay [3], “Not Active”; in assay [7], 7 nM; in [10], 13 nM. Moreover, the Ki – broadly, the equilibrium dissociation constant of an inhibitor or competing ligand from its target – in [2] was 4 nM; in [4], > 1000 nM; in [5], 5 nM; in [6], > 1000 nM; in assay [8], > 1000 nM; in assay [9], 4 nM.

Consider `CC(/C=C/C1(c2cc3c(cc2C)C(C)(C)CCC3(C)C)CCCC1)=C\C(=O)O`, for which the Ki in assay [2], in assay [4], in assay [5], in assay [6], in [8] and in assay [9] was > 1000 nM each time. Also, the EC50 result in assay [11] is “Not Active”; in [12] it was 2520 nM; in [13], 809 nM; in assay [14], 1780 nM; in assay [7], 2710 nM; in [10] it was 2000 nM.

As for `CC(/C=C/C1(c2ccc3c(c2)C(C)(C)CCC3(C)C)CC1)=C\C(=O)O`, the Ki is 7 nM in assay [2]; > 1000 nM in assay [4]; 6 nM in [5]; > 1000 nM in [6]; > 1000 nM in assay [8]; 3 nM in [9]. In addition, the EC50 entry in assay [11] is “Not Active”; in assay [12] it was 23 nM; in [13] it was 287 nM; in assay [14], 399 nM; in assay [7] it was 24 nM; in assay [10] it was 19 nM.

Turning to `CC(/C=C/C1(c2ccc3c(c2)C(C)(C)CCC3(C)C)CCCC1)=C\C(=O)O`, the EC50 entry in [1] is “Not Active”; in assay [11], “Not Active”; in assay [12] it was 51 nM; in [7] it was 192 nM; in assay [15], “Not Active”; in [10] it was 127 nM. Further, the Ki in assay [2] was 124 nM; in assay [4], > 1000 nM; in assay [5] it was 172 nM; in assay [6], > 1000 nM; in [8] it was > 1000 nM; in [9], 92 nM.

On to `C=C(c1ccc(C(=O)O)cc1)c1ccc2c(c1)C(C)(C)CCC2(C)C`, for which the Ki in assay [2] worked out at 199 nM; in [4] it was 909 nM; in [5], 290 nM; in assay [6] it was 887 nM; in [8] it was 944 nM; in assay [9], 150 nM. The EC50 entry was “Not Active” in assay [11], 404 nM in assay [7] and 486 nM in assay [10].
